From PubChem BioAssay (NCI)
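Cells were grown in 96-well plates and exposed to each compound for 48 hours at five concentrations; endpoints were interpolated linearly between bracketing concentrations, or set to the highest concentration if not reached. TGI: total growth inhibition.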

Experiments:
Test in all cases: NCI tumour cell line growth inhibition, 48 h
[1] = test system: MALME-3M melanoma
[2] = test system: SK-MEL-2 melanoma
[3] = test system: LOX IMVI melanoma
[4] = test system: M14 melanoma
[5] = test system: EKVX NSCLC
[6] = test system: SN12C renal
[7] = test system: U251 CNS
[8] = test system: MCF7 breast
[9] = test system: OVCAR-8 ovarian
[10] = test system: PC-3 prostate
[11] = test system: NCI/ADR-RES ovarian
[12] = test system: ACHN renal
[13] = test system: MOLT-4 leukemia
[14] = test system: NCI-H460 lung
[15] = test system: SR leukemia
[16] = test system: BT-549 breast
[17] = test system: HL-60(TB) leukemia
[18] = test system: TK-10 renal
[19] = test system: HOP-92 NSCLC
[20] = test system: SNB-19 CNS
[21] = test system: SK-MEL-28 melanoma
[22] = test system: NCI-H522 lung
[23] = test system: HCT-15 colon
[24] = test system: A498 renal
[25] = test system: IGROV1 ovarian
[26] = test system: SF-295 CNS
[27] = test system: KM12 colon
[28] = test system: OVCAR-5 ovarian
[29] = test system: SF-268 CNS
[30] = test system: RPMI-8226 leukemia
[31] = test system: UACC-257 melanoma
[32] = test system: 786-0 renal
[33] = test system: HCC-2998 colon
[34] = test system: MDA-MB-231 breast
[35] = test system: SK-MEL-5 melanoma
[36] = test system: T-47D breast
[37] = test system: HOP-62 NSCLC
[38] = test system: K-562 leukemia
[39] = test system: CCRF-CEM leukemia
[40] = test system: CAKI-1 renal
[41] = test system: SF-539 CNS
[42] = test system: MDA-MB-435
[43] = test system: HS 578T breast
[44] = test system: NCI-H226 lung
[45] = test system: COLO 205 colon
[46] = test system: HT29 colon
[47] = test system: MDA-N
[48] = test system: SW-620 colon
[49] = test system: RXF 393 renal
[50] = test system: NCI-H23 lung
[51] = test system: DU-145 prostate
[52] = test system: OVCAR-4 ovarian
[53] = test system: UO-31 renal
[54] = test system: A549 NSCLC
[55] = test system: OVCAR-3 ovarian
[56] = test system: HCT-116 colon
[57] = test system: UACC-62 melanoma
[58] = test system: SNB-75 CNS
[59] = test system: SK-OV-3 ovarian

Measured: TGI

CC(=O)Nc1cc2cc(N)ccc2oc1=O
not listed: [57] | [58] | [59]
> 100 µM: all other assays above

CC(O)C1(CNc2cc(Cl)nc(N)n2)CCCCC1 (centres undefined)
not listed: [33]
> 100 µM: all other assays above
